Test results reported in ChEMBL document CHEMBL1201862, “PubChem BioAssay data set” (2004).
The source made the active and inactive calls.

Legend:
[1] = molecular target: G2/mitotic-specific cyclin-B1 (Homo sapiens, UniProt P14635); test: G2/M cell cycle arrest in HeLa, late-stage follow-up, mechanism study for Wee1 degradation inhibitor project, FACS, panel member Cyclin B Degradation (AID 2088)
Wee1-like protein kinase = Wee1-like protein kinase (Homo sapiens, UniProt P30291); test: G2/M cell cycle arrest in HeLa, late-stage follow-up, mechanism study for Wee1 degradation inhibitor project, FACS, panel member Wee1 Degradation (AID 2088)
HeLa = test: HeLa cell cytotoxicity, dose response, cytotoxicity control for MITF activator project, CellTiter-Glo luminescence, cherry-pick samples (AID 540259); format: functional, cell-based; details: Homo sapiens
[2] = molecular target: T1, Kappa-type opioid receptor (Homo sapiens, UniProt P41145); format: functional
T1 sequence (P41145 whole entry): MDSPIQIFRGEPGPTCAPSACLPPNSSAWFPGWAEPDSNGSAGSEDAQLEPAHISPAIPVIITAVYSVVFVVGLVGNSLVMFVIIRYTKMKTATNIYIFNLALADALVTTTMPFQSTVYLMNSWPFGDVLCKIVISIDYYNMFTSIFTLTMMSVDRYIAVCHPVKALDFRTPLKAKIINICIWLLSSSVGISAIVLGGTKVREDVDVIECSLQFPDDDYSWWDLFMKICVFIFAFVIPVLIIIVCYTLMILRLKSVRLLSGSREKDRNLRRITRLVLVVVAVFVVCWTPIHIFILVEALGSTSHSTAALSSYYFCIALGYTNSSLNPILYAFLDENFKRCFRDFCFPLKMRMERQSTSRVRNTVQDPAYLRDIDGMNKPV

[3] = molecular target: T1, Kappa-type opioid receptor; format: functional; remark: listed apart in the source
[4] = molecular target: T2, Rac GTPase-activating protein 1 (Homo sapiens, UniProt Q9H0H5); test: MgcRacGAP GTPase-activating activity inhibitors, confirmation, biochemical, ADP Hunter fluorescence, primary and confirmatory (AID 624330); format: functional
T2 sequence (Q9H0H5 whole entry): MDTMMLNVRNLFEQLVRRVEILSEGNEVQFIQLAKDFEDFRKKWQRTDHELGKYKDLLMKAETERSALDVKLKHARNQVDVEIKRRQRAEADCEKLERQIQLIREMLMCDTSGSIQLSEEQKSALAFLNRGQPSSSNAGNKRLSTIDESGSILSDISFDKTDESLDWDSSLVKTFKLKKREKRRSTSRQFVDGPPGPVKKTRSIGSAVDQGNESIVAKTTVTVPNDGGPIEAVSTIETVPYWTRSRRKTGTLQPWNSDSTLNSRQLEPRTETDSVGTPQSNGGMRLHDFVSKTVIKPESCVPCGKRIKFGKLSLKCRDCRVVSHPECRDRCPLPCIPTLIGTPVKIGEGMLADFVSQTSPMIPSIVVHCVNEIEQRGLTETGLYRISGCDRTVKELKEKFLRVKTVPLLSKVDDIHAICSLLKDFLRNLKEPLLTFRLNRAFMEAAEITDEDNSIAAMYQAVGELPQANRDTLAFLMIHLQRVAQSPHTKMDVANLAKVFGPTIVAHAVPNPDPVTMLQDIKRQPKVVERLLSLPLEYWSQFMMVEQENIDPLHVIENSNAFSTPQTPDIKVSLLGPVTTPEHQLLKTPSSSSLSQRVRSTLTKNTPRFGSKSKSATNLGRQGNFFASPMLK

Beta-galactosidase = Beta-galactosidase (Escherichia coli, UniProt Q8VNN2); format: functional
[5] = HeLa cell cytotoxicity, dose response, cytotoxicity control for MgcRacGAP inhibitor project (AID 624300); format: functional
[6] = blockers of SFLLRN-triggered platelet ATP secretion – cell-based, human platelets, luminescence, dry powder, dose response (AID 493100); format: functional
[7] = molecular target: Luciferin 4-monooxygenase (Photinus pyralis, UniProt P08659); test: firefly luciferase enzyme inhibitors, dose response, biochemical, luminescence (AID 1891)
[8] = molecular target: T3, Eukaryotic translation initiation factor 4H (Homo sapiens, UniProt Q15056); test: eIF4H inhibition in translation initiation, SAR follow-up (AID 435011); format: functional
[9] = molecular target: T4, Polyadenylate-binding protein 1 (Homo sapiens, UniProt P11940); test: PABP inhibition in translation initiation, SAR follow-up (AID 435018); format: functional
T4 sequence (P11940 whole entry): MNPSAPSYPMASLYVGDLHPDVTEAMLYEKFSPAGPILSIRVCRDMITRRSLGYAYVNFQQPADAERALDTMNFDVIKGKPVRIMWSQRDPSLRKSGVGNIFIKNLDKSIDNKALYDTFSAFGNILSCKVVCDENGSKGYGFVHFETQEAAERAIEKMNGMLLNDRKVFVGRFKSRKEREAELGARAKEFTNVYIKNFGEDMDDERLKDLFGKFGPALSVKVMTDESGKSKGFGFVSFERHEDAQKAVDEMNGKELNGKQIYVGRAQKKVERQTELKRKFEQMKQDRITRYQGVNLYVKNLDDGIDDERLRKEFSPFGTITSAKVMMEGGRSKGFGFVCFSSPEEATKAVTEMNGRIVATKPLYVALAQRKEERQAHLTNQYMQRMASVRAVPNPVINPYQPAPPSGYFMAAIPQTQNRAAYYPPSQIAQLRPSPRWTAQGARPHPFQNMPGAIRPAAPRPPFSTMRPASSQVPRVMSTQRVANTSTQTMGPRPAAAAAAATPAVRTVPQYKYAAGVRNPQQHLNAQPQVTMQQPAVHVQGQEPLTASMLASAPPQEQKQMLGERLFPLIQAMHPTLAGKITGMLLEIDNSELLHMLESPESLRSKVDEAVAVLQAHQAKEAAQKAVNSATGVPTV

[10] = molecular target: T3, Eukaryotic translation initiation factor 4H; test: human eIF4H binding inhibitors, primary screen, translation initiation inhibitor project, biochemical, uHTS, fluorescence polarization (AID 2012)
[11] = Luminescence Cell-Based Dose Confirmation HTS to Identify Inhibitors of Platelet Dense Granule Release. [Related pubchem assays: 1663 (Primary HTS), 1678 (Summary of Project)]; format: functional
[12] = molecular target: T4, Polyadenylate-binding protein 1; test: PABP poly(A) RNA binding inhibitors, primary screen, biochemical, fluorescence polarization, uHTS (AID 2014)
[13] = molecular target: T5, Voltage-gated N-type calcium channel alpha-1B subunit/Amyloid beta A4 precursor protein-binding family A member 1 (Homo sapiens, UniProt Q00975+Q02410); test: disruptors of Mint-PDZ/N-type channel peptide interaction – biochemical, HTRF, SAR follow-up (AID 2489); format: functional
T5 sequence (Q00975 whole entry): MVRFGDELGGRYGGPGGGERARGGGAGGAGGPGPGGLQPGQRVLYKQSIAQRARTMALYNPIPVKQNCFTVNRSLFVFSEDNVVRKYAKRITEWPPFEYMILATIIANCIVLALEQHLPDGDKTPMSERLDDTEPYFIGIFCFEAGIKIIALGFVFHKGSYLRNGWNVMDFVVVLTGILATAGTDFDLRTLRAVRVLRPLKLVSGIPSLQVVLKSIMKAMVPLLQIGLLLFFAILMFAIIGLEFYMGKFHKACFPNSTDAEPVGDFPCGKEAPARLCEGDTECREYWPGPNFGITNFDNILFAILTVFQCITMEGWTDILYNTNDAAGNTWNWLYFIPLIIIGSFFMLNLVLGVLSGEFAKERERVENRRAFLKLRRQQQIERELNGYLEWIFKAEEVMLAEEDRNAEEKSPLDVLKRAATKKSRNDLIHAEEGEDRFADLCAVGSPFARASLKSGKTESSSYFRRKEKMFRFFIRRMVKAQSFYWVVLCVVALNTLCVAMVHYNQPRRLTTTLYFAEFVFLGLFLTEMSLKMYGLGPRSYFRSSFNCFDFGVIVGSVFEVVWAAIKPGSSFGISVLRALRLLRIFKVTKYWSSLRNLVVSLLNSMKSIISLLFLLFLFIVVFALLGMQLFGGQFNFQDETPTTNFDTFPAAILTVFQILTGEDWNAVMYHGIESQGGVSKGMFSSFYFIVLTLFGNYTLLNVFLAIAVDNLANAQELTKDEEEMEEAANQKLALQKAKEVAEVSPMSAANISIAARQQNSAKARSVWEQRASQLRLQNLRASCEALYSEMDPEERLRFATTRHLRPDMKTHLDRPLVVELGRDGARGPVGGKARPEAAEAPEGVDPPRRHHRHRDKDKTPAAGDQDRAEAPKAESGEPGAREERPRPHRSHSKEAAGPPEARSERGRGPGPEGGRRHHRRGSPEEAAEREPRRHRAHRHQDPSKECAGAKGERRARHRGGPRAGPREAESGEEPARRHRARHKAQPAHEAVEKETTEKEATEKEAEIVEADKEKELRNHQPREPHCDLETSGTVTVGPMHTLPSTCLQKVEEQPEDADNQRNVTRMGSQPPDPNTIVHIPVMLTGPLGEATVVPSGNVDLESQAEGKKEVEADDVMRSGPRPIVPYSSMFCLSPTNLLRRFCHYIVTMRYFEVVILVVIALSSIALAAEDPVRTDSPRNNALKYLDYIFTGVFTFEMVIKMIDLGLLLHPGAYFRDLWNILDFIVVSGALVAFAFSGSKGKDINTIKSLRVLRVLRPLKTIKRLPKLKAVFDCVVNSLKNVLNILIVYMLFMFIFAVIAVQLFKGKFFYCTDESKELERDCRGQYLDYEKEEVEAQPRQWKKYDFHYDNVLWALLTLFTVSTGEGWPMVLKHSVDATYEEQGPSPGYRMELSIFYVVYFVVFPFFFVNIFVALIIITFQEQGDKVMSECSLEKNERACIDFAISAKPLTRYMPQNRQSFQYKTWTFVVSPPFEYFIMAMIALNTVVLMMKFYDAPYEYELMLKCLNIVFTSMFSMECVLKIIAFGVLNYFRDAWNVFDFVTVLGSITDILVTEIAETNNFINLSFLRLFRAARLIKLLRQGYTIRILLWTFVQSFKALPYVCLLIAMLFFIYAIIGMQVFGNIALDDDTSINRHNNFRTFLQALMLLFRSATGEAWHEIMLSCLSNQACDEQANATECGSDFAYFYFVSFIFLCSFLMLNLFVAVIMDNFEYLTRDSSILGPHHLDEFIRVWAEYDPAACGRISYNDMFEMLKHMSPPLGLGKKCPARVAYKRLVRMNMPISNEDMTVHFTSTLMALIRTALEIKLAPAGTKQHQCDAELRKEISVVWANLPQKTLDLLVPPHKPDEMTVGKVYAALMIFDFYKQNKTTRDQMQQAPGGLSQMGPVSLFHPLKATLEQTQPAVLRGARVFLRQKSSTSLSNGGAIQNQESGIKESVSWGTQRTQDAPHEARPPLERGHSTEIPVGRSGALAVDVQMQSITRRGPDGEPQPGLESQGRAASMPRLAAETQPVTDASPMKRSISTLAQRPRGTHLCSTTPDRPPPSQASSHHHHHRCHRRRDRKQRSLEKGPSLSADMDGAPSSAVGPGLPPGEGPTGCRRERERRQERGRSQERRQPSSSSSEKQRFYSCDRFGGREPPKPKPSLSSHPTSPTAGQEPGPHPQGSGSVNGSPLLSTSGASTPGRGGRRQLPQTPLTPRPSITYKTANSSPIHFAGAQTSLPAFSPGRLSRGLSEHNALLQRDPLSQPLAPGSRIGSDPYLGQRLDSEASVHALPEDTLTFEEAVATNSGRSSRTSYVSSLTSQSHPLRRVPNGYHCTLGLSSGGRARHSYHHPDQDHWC
T5 sequence (Q02410 whole entry): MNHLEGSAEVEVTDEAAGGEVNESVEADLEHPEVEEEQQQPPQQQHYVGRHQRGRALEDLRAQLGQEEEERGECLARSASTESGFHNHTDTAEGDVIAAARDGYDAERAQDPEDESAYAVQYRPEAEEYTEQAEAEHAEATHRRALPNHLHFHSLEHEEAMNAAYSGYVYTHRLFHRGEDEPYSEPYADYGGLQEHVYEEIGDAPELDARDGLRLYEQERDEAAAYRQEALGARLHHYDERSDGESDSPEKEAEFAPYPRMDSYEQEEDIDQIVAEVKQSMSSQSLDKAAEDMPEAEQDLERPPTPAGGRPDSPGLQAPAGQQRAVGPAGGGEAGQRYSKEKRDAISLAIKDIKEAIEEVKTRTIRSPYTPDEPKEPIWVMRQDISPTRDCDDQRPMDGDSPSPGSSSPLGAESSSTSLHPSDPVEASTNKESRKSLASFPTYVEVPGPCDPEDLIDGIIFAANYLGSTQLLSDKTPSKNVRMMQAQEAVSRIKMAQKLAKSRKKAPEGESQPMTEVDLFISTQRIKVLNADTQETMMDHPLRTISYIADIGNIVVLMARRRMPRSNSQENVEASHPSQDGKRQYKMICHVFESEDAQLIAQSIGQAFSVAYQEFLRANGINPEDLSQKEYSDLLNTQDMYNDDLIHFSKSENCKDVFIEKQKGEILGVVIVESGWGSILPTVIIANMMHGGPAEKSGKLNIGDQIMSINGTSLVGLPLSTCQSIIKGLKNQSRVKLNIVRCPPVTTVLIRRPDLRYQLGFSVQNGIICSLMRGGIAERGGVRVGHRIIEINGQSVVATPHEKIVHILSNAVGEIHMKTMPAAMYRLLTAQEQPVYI

[14] = molecular target: T5, Voltage-gated N-type calcium channel alpha-1B subunit/Amyloid beta A4 precursor protein-binding family A member 1; test: disruptors of Mint-PDZ/N-type channel peptide interaction – biochemical, HTRF, set 2, SAR follow-up (AID 434980); format: functional
[15] = molecular target: T6, RNA-binding protein pos-1 (Caenorhabditis elegans, UniProt G5EF15); test: inhibitors of POS-1/mex-3 RNA binding, dose response, biochemical, fluorescence polarization (AID 1964);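 also: purified POS-1 fused to maltose binding protein made in E. coli; potency of compounds blocking POS-1 binding to fluorescent RNA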
T6 sequence (G5EF15 whole entry): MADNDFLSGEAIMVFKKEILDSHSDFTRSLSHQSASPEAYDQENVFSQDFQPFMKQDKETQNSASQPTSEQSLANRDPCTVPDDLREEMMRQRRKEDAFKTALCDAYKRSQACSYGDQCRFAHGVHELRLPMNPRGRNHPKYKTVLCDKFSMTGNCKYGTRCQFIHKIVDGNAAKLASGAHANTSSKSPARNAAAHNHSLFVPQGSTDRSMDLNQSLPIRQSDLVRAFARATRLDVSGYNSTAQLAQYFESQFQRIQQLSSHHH

[16] = molecular target: T7, Zinc finger protein mex-5 (Caenorhabditis elegans, UniProt Q9XUB2); test: MEX-5/TCR-2 RNA interaction inhibitors, dose response, biochemical, C. elegans, fluorescence polarization (AID 1960)
T7 sequence (Q9XUB2 whole entry): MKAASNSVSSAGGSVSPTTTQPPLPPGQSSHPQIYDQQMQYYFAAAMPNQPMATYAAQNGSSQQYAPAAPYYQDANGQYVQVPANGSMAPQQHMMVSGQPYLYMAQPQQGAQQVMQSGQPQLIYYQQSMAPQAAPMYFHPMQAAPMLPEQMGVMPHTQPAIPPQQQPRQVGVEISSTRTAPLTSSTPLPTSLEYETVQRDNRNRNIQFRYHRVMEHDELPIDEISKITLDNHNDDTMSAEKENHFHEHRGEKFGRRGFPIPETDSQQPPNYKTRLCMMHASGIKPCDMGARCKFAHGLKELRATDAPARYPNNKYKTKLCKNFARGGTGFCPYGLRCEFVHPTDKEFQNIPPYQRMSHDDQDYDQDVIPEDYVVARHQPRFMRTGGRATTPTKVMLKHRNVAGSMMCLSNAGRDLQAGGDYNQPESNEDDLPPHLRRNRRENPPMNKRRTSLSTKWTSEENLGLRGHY

[17] = molecular target: Female germline-specific tumor suppressor gld-1 (Caenorhabditis elegans, UniProt Q17339); test: inhibitors of GLD-1 binding to TGE RNA, dose response, biochemical, fluorescence polarization, C. elegans (AID 2802);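 also: fluorescence polarization of labeled TGE RNA bound by purified gld-1 protein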
INS1 = test: beta cell apoptosis inhibitors, cytokine rescue, dose response, luminescence, retest (AID 449756); format: functional, cell-based; details: Rattus norvegicus;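 also: cell death triggered by IL-1 beta plus TNF-alpha plus IFN-gamma mixture; protective hits raise ATP signal compared with cytokine alone wells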
Hexokinase HKDC1 = molecular target: T8, Hexokinase HKDC1 (Homo sapiens, UniProt Q2TB90); test: HKDC1 hexokinase inhibitors, dose response, biochemical, W721R variant (AID 504729); format: functional
T8 sequence (Q2TB90 whole entry): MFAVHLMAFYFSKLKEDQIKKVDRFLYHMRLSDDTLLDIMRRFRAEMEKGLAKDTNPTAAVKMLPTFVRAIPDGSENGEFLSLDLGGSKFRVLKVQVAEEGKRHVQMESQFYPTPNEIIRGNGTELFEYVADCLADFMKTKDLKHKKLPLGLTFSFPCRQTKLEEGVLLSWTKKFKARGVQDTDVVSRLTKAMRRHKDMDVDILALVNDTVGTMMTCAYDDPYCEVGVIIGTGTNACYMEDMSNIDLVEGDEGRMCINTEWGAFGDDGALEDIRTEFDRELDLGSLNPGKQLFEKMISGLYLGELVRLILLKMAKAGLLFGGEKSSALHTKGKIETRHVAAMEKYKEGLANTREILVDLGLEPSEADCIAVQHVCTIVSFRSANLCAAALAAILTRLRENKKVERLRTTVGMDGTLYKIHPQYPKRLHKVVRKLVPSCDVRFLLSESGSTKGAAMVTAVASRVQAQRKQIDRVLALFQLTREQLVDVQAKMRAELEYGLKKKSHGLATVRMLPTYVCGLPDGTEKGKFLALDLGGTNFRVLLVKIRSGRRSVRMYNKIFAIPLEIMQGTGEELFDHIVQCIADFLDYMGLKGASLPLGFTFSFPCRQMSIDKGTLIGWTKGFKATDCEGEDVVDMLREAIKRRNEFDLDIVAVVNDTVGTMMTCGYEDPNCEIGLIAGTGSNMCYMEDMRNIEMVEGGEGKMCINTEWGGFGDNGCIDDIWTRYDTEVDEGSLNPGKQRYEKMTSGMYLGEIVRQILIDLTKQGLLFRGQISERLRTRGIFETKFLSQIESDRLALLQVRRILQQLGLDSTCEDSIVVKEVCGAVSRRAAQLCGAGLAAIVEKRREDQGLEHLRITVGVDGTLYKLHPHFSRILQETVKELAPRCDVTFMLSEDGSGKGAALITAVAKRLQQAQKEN

Protein Rev = Protein Rev (Human immunodeficiency virus type 1 group M subtype B (isolate HXB2)(HIV-1), UniProt P04618); test: inhibitors of Rev binding to RRE RNA, dose response, biochemical, fluorescence polarization, HIV-1 (AID 434976); set-up: species or system Human immunodeficiency virus 1
[18] = molecular target: Intestinal-type alkaline phosphatase (Homo sapiens, UniProt P09923); test: activation of human intestinal alkaline phosphatase – biochemical, dose response (AID 488873); format: functional
[19] = molecular target: Intestinal-type alkaline phosphatase (Mus musculus, UniProt P24822); test: PubChem AID 488785; format: functional
Sequence of Intestinal-type alkaline phosphatase (Mus musculus, UniProt P24822) (P24822 whole entry): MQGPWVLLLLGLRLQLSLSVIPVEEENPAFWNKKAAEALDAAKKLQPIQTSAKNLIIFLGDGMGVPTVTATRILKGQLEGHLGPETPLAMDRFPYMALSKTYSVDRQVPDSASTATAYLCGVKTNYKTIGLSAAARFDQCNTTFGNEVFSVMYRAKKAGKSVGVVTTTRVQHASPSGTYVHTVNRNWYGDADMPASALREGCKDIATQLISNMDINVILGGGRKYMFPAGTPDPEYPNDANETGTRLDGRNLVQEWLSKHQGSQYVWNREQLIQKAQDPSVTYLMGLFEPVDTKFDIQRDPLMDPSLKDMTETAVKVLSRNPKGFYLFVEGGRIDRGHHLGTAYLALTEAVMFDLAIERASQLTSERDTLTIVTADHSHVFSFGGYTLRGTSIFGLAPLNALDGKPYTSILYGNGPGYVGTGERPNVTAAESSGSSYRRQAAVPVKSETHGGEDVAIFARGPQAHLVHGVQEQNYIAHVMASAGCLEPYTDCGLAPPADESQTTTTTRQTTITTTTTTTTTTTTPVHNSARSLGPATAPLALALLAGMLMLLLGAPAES

Vero = test: cells; format: functional; details: Chlorocebus sabaeus
[20] = molecular target: T9, Alkaline phosphatase, tissue-nonspecific isozyme (Homo sapiens, UniProt P05186); test: TNAP enzyme inhibition by screening hits, dose response, selectivity assay for mouse IAP inhibitor project, biochemical, human TNAP, uHTS hits (AID 488906); format: functional
T9 sequence (P05186 whole entry): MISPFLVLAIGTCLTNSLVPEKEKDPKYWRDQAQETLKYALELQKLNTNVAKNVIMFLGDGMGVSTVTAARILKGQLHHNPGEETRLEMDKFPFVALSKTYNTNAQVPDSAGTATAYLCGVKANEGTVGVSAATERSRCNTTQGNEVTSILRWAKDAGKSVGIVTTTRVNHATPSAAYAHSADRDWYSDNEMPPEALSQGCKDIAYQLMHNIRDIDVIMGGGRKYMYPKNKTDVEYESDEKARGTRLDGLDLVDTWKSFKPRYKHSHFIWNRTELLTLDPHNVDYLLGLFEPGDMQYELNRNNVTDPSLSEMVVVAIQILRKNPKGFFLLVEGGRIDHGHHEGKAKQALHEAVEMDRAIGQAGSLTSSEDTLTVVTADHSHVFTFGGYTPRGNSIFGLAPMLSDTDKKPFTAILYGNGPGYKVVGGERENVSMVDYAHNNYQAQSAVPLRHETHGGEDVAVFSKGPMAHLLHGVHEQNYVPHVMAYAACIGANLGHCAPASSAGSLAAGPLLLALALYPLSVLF

Bcl-2-like protein 10 = Bcl-2-like protein 10 (Homo sapiens, UniProt Q9HD36); test: displacers of TR3 peptide from Bcl-B, primary screen, selectivity assay for Bfl-1 inhibitor project, biochemical, fluorescence polarization, FITC-TR3 peptide (AID 748);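 also: fluorescence polarization from a fluorescein-labelled TR3 peptide binding purified Bcl-B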

Compound: c1cc2[nH]c3c(c2c2nonc12)CCCC3
- EC50 [1]: > 49.7 µM (inactive)
- EC50 (Wee1-like protein kinase): > 49.7 µM (inactive)

Compound: COc1cc(/C=C2\SC(=S)N(Nc3ccccc3)C2=O)ccc1O
- AC50 (HeLa): 41 µM (active)
- IC50 [2]: 8.41 µM (active)
- IC50 [3]: > 32 µM
- IC50 [4]: 55.7 µM (active)
- EC50 (Beta-galactosidase): 9.67 µM (active)
- CC50 [5]: 100 µM (active)

Compound: CCCC(=O)Nc1cccc(NC(=O)c2ccccc2Cl)c1
- AC50 [6]: 6.09 µM (active)

Compound: CCN1CCN(S(=O)(=O)c2ccc(Cl)c(C(=O)Nc3ccc(C(=O)N(CC)CC)cc3)c2)CC1
- EC50 [7]: > 112 µM (not active)
- IC50 [8]: > 100 µM (inactive)
- IC50 [9]: 1.33 µM (active)
- IC50 [10]: > 100 µM (inactive)
- EC50 [11]: > 112 µM (not active)
- IC50 [12]: 15.1 µM (active)

Compound: O=C(NCCc1cccnc1)c1cc(-c2ccco2)nc2ccccc12
- IC50 [13]: 29.2 µM (active)
- IC50 [14]: > 56.8 µM (inactive)

Compound: COc1cc2c(cc1OC)-c1c(OC)c(OC)c(OC)c3ccnc(c13)C2=O [OXOPURPUREINE]
- EC50 [15]: 28.6 µM (inconclusive)
- EC50 [16]: 4.83 µM (active)
- IC50 [17]: 6.15 µM (active)
- AC50 (INS1): 3.34 µM (active)
- IC50 (Hexokinase HKDC1): 12.1 µM (active)
- IC50 (Protein Rev): > 75.4 µM (not active)

Compound: Cc1c(CN2CCC(C(=O)Nc3cccc(-c4cccc(Cl)c4)c3)CC2)cnn1C
- EC50 [18]: 37.2 µM (active)
- IC50 [19]: 4.27 µM (active)
- CC50 (Vero): 16.1 µM (active)
- IC50 [20]: > 100 µM (inactive)

Compound: Cc1ccc2nc3sc(-c4nnc(-c5ccccc5[N+](=O)[O-])o4)c(N)c3cc2c1
- IC50 (Bcl-2-like protein 10): > 100 µM (inactive)
